Like-named read-outs stand apart in the source and are kept apart here.
Key:
[1] = tested on: CRISPR-mediated homology-directed repair (HDR); conditions: description of the known compound; cited from earlier work
HEK293 eTLR cells [2] = conditions: for HDR rates: compounds added 24 hours post-transfection, FACS 72 h after transfection, Figure 2A
HEK293 eTLR cells [3] = conditions: treated four hours before transfection; FACS 72 h after transfection; Figure 3

c1cnccn1 [SCR7 pyrazine]
enhancement of CRISPR-mediated homology-directed repair (HDR) [1]: up to 19 fold

COc1ccc([C@@H](O)c2cc(-c3ncnc4cc(N5CCOCC5)ccc34)c(F)cc2Cl)nn1 [M3814]
HDR rates (HEK293 eTLR cells [2]): increased HDR rates
HDR rates (HEK293 eTLR cells [3]): significantly higher HDR rates than ITD Alt-R HDR Enhancer V2

Cc1cc2ncnn2cc1Nc1ncc2c(n1)n(C1CCOCC1)c(=O)n2C [AZD-7648]
HDR rates (HEK293 eTLR cells [2]): increased HDR rates
concentration at which the HDR rates are maximally increased (HEK293 eTLR cells [2]; range tested 0.5 to 2 µM, Figure 2B): 0.5 µM
HDR rates (HEK293 eTLR cells [3]): significantly higher HDR rates than ITD Alt-R HDR Enhancer V2

NU7441
HDR rates (HEK293 eTLR cells [2]): increased HDR rates

From EP4198126B1 (priority 2021, dated 2023)
